Measurements from article PMC7367925, “The EU-ToxRisk method documentation, data processing and chemical testing pipeline for the regulatory use of new approach methods” (Archives of Toxicology, 2020).

Key:
[1] = molecular target: T1, PPARα (Homo sapiens, UniProt Q07869); experiment: PPARa CALUX; format: cell-based; conditions: 24 h exposure, lowest effect level PC10, means from 3 assay runs
T1 construct: host or cells: U-2 OS
T1 sequence (Q07869 1-468): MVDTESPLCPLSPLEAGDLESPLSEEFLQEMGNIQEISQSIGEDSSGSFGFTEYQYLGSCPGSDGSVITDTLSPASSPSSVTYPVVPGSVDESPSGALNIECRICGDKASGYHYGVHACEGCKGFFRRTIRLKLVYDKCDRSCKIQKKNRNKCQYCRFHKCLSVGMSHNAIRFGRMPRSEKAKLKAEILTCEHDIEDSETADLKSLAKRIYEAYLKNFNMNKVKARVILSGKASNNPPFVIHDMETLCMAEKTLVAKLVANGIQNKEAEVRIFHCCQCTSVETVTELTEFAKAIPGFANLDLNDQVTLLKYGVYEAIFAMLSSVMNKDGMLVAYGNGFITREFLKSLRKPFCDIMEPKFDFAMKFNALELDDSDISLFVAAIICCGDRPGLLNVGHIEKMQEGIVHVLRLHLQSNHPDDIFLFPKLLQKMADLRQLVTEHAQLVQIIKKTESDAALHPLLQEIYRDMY
Protocol: (§1) After 24 h, exposure medium was prepared. […] All samples were tested in triplicates. […] Fig. SM_4. […] Fig. SM_4.
(§2) Cell line Endpoint effect Reference compound […]
PPARa CALUX Peroxisomeproliferator activated receptor agonists PC10 GW7647 […]
(§3) Supplementary Material SM_4
(§4) Overview of CALUX assays.
(§5) This is defined as the concentration of test compound […]
(§6) for an antagonist assay is a PC20.
(§7) PC = positive control. FI = fold induction. PC10: concentration where test compound causes an activation equal to 10% of the maximum effect (positive control). PC20: concentration where test compound causes […]
(§8) FI=1.5: concentration where test
(§9) (A) exemplary graph of concentration- […]
(§10) receptor antagonism assay with PC20 as lowest-effect-level. (C) exemplary graph for assay with 1.5 fold inductionas lowest effect level. 9

[2] = molecular target: T2, PPARδ (Homo sapiens, UniProt Q03181); experiment: PPARd CALUX; format: cell-based; conditions: 24 h exposure, lowest effect level PC10, means from 3 assay runs
T2 construct: host or cells: U-2 OS
T2 sequence (Q03181 1-441): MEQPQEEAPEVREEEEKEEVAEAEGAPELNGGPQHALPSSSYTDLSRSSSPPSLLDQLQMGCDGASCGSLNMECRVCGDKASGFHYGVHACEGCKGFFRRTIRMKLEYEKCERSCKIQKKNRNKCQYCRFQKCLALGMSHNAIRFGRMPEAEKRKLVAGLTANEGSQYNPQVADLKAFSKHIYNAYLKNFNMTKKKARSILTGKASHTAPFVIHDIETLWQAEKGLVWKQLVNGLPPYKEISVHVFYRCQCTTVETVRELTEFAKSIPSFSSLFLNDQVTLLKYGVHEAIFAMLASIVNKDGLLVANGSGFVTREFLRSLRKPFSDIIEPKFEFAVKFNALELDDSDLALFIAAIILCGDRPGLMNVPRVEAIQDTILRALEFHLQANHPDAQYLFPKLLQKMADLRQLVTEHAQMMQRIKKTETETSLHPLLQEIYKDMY

[3] = molecular target: T3, PPARγ (Homo sapiens, UniProt P37231); experiment: PPARg2 CALUX; format: cell-based; conditions: 24 h exposure, lowest effect level PC10, means from 3 assay runs
T3 construct: host or cells: U-2 OS
T3 sequence (P37231 1-505): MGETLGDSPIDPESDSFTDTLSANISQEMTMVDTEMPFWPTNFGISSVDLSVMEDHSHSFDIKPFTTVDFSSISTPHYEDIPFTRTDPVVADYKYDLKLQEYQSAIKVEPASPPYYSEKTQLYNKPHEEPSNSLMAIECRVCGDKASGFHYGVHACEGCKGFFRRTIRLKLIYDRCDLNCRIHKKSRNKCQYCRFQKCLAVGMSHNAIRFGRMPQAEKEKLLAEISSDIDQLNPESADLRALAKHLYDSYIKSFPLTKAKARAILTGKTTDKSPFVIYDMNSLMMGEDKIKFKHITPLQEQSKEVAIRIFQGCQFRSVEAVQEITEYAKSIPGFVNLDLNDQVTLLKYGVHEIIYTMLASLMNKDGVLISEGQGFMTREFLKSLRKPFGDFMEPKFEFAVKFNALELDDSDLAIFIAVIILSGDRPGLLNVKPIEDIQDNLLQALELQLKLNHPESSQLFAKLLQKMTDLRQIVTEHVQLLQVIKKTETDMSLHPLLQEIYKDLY
Protocol: as §1, §2, §3, §4, §5, §6, §7, §8, §9, §10

[4] = test system: p53-dependent pathway activation / genotoxicity; format: cell-based, human; conditions: 24 h exposure, lowest effect level FI=1.5, means from 3 assay runs
Protocol: as §1, §3, §4, §5, §6, §7, §8, §9, §10

[5] = test system: U-2 OS reporter cell lines battery; experiment: CALUX reporter gene assay battery as a whole; conditions: all CALUX assays, 13 concentrations, 24 h exposure
[6] = molecular target: T4, Estrogen receptor alpha (Homo sapiens, UniProt P03372); format: cell-based; conditions: 24 h exposure, lowest effect level PC10, means from 3 assay runs
T4 construct: host or cells: U-2 OS
T4 sequence (P03372 whole entry): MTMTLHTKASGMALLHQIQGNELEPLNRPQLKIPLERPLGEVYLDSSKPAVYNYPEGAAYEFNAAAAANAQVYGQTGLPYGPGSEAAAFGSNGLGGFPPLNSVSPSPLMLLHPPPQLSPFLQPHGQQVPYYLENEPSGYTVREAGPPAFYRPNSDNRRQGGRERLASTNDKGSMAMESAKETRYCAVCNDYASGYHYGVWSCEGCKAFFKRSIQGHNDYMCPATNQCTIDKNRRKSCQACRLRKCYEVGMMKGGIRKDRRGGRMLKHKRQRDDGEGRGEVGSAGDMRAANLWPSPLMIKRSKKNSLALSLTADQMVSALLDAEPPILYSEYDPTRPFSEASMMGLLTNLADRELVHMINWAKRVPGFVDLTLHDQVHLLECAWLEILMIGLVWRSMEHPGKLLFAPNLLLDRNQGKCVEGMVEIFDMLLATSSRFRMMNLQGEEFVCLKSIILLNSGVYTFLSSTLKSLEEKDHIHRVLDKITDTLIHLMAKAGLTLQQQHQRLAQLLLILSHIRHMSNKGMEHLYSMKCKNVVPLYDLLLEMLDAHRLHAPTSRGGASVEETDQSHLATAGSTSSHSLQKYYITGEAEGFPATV
Protocol: as §1, §3, §4, §5, §6, §7, §8, §9, §10

[7] = molecular target: T5, Glucocorticoid receptor (Homo sapiens, UniProt P04150); format: cell-based; conditions: 24 h exposure, lowest effect level PC20, reference agonist at EC50, means from 3 assay runs
T5 construct: host or cells: U-2 OS
T5 sequence (P04150 1-777): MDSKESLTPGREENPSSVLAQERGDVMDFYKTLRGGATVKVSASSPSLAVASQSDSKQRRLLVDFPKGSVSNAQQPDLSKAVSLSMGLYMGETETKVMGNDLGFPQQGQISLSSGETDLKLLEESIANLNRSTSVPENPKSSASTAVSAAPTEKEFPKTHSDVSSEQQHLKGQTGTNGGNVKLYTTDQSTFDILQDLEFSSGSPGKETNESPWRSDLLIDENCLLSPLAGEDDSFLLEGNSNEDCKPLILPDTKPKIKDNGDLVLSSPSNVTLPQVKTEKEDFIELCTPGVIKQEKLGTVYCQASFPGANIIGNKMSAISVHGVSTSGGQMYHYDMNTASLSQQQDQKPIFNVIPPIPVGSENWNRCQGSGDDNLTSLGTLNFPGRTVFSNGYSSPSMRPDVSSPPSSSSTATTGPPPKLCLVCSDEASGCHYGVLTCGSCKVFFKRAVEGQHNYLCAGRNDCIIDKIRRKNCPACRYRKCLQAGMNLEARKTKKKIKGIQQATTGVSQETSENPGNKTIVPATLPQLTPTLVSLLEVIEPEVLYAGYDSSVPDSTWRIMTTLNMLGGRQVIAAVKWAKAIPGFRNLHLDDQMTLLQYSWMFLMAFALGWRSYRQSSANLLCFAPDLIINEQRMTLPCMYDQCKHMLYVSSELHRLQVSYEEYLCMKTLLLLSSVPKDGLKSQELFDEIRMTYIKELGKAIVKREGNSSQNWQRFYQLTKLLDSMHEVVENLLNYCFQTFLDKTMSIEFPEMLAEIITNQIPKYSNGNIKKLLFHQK
Protocol: as §1, §3, §4, §5, §6, §7, §8, §9, §10

[8] = molecular target: T6, Progesterone receptor (Homo sapiens, UniProt P06401); experiment: PR-anti CALUX; format: cell-based; conditions: 24 h exposure, lowest effect level PC20, reference agonist at EC50, means from 3 assay runs
T6 construct: host or cells: U-2 OS
T6 sequence (P06401 1-933): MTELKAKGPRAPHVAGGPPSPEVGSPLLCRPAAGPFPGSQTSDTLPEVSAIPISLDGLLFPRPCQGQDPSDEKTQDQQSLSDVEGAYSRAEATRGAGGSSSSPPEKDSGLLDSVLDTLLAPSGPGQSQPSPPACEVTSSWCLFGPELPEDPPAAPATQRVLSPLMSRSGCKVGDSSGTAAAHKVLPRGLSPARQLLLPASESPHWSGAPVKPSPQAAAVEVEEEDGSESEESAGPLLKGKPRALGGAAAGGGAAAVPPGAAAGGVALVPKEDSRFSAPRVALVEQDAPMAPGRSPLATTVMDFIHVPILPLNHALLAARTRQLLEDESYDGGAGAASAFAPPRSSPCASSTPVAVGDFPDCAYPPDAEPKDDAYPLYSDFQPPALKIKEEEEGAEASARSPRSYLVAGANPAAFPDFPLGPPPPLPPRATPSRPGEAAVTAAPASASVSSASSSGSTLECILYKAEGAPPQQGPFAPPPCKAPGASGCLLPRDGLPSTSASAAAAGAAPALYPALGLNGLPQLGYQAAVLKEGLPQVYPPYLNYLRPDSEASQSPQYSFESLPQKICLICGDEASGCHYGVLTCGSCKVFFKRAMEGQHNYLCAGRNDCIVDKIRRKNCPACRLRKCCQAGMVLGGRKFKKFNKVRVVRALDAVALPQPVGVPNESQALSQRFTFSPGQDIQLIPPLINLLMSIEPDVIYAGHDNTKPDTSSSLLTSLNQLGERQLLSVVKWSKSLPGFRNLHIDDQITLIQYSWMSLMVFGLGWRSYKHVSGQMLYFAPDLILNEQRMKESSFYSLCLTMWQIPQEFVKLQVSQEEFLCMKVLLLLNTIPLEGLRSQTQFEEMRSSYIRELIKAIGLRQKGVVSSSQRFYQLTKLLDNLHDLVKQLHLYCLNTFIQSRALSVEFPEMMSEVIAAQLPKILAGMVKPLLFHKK
Protocol: as §1, §3, §4, §5, §6, §7, §8, §9, §10

[9] = molecular target: T7, Pregnane X receptor (Homo sapiens, UniProt O75469); experiment: PXR CALUX; format: cell-based; conditions: 24 h exposure, lowest effect level PC10, means from 3 assay runs
T7 construct: host or cells: U-2 OS
T7 sequence (O75469 1-434): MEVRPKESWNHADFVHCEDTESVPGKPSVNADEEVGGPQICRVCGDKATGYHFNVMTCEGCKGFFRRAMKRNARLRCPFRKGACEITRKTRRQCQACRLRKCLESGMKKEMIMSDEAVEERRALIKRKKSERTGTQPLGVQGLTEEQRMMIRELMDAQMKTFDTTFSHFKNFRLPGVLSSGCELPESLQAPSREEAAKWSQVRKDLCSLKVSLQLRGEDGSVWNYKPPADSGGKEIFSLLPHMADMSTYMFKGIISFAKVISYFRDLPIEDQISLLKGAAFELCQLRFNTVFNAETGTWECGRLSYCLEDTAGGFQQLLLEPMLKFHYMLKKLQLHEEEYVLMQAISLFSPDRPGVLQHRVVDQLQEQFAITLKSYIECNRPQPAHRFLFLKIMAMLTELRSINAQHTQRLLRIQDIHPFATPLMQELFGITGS
Protocol: as §1, §3, §4, §5, §6, §7, §8, §9, §10

[10] = molecular target: T8, Aryl Hydrocarbon receptor (Rattus norvegicus, UniProt P41738); experiment: DR CALUX / AhR CALUX (rat hepatoma H-4-II-E cells); format: cell-based; conditions: 24 h exposure, lowest effect level PC10, means from 3 assay runs
T8 construct: host or cells: rat hepatoma H-4-II-E (ATCC CRL-1548)
T8 sequence (P41738 10-853): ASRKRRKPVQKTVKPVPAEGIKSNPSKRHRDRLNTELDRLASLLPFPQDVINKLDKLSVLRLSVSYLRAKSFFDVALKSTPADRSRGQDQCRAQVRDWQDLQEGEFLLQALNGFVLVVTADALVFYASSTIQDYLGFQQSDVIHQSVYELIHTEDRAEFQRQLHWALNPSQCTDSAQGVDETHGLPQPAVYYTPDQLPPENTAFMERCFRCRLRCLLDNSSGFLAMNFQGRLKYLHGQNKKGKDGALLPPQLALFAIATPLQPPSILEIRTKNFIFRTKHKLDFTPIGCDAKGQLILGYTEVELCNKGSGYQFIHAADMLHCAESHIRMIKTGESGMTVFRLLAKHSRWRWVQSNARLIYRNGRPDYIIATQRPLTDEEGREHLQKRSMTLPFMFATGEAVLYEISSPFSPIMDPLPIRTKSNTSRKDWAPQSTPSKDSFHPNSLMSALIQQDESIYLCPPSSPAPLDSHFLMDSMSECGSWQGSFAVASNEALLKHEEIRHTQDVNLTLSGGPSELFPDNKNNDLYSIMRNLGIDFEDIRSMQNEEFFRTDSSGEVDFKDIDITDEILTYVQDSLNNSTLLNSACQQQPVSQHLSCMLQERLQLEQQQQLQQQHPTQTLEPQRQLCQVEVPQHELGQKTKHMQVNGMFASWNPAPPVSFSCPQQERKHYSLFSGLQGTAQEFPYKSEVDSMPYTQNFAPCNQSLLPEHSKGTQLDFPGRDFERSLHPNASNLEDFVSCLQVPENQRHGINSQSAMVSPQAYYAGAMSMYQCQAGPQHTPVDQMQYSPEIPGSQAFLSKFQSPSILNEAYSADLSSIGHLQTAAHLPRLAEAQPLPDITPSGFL

[11] = test system: U-2 OS cells; experiment: Cytotox CALUX; conditions: 24 h exposure, lowest effect level PC20, means from 3 assay runs

Row | Compound | PoD PPARα - ago [1] | PoD PPARδ - ago [2] | PoD PPARγ - ago [3] | PoD p53 [4] | response profile over the CALUX battery (in words) [5] | PoD Erα - ago [6] | PoD GR - anta [7] | PoD PR - anta [8] | PoD PXR - ago [9] | PoD AhR - ago [10] | PoD cytotoxicity [11]
1 | CC(C)Cc1ccc(C(C)C(=O)O)cc1 (stereo not drawn) [Ibuprofen] | 4.3 -log(M) | 4.0 -log(M) | 4.0 -log(M) | 3.0 -log(M) | activated all three isoforms of the peroxisome proliferator activated receptor | – | – | – | – | – | –
2 | O=P(Oc1ccccc1)(Oc1ccccc1)Oc1ccccc1 [Triphenyl phosphate] | – | – | – | – | only activated nuclear hormone receptor related assays | 5.4 -log(M) | 4.8 -log(M) | 5.2 -log(M) | 6.1 -log(M) | 4.2 -log(M) | 4.0 -log(M)
